From US9073855B2, “BCL-2 selective apoptosis-inducing agents for the treatment of cancer and immune diseases” (AbbVie Inc., priority 2008, dated 2015) come the findings set out here.

For one assay, the target named is GST-Bcl-2 (Homo sapiens, UniProt P10415). In words: TR-FRET binding assay, GST-Bcl-2 with F-Bak peptide probe. The following applies: for Ki: TR-FRET Binding Affinity; for Binding selectivity ratio (Bcl-XL Ki/Bcl-2 Ki): TR-FRET, Bcl-XL Ki divided by Bcl-2 Ki. Put shortly:
(§1)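 Competitive TR-FRET: GST-fusion protein, fluorescent Bak peptide probe and Tb-labelled anti-GST antibody incubated with compound dilution series (starting 50 μM as 2× stock, 10% DMSO) for 3 h at RT. Excitation 340/35 nm; Ki derived via Wang's exact competitive-binding equation.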

The next assay concerns the target GST-Bcl-XL (Homo sapiens, UniProt Q07817). In words: TR-FRET binding assay, GST-Bcl-XL with F-Bak peptide probe. The note with it: TR-FRET Binding Affinity. Put shortly: as §1

Chain of GST-Bcl-XL (Q07817 whole entry): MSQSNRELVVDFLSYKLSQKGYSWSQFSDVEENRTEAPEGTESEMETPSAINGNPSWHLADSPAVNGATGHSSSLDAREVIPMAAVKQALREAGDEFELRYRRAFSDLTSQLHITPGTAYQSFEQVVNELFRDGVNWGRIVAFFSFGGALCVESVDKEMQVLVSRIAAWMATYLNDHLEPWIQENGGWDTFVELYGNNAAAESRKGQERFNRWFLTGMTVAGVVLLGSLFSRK
Chain of GST-Bcl-2 (P10415 whole entry, the tested form may be a part): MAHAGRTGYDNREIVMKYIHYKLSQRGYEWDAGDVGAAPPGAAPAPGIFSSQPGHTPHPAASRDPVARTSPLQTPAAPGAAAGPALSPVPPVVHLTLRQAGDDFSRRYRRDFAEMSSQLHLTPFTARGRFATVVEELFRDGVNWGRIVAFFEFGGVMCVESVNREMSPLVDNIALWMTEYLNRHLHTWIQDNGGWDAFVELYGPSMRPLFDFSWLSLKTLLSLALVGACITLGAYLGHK

In the case of `CC1(C)CCC(CN2CCN(c3ccc(C(=O)NS(=O)(=O)c4ccc(NCC5CN(S(C)(=O)=O)CCO5)c([N+](=O)[O-])c4)c(Oc4cccc5[nH]cnc45)c3)CC2)=C(c2ccc(Cl)cc2)C1` (stereo not shown) [Example 458, 2-(1H-benzimidazol-4-yloxy)-4-(4-{[2-(4-chlorophenyl)-4,4-dimethylcyclohex-1-en-1-yl]methyl}piperazin-1-yl)-N-{[4-({[4-(methylsulfonyl)morpholin-2-yl]methyl}amino)-3-nitrophenyl]sulfonyl}benzamide], on GST-Bcl-2, the Ki is below 0.01 nM and the “Binding selectivity ratio (Bcl-XL Ki/Bcl-2 Ki)” value (from here on “Binding selectivity ratio”) came to 237.2. In addition, the Ki on GST-Bcl-XL is 2.37 nM.

Consider `CC1(C)CCC(CN2CCN(c3ccc(C(=O)NS(=O)(=O)c4cnc(OCC5(F)CCN(C(CF)CF)CC5)c(C(F)(F)F)c4)c(Oc4cccc5[nH]ncc45)c3)CC2)=C(c2ccc(Cl)cc2)C1` [Example 459, 4-(4-{[2-(4-chlorophenyl)-4,4-dimethylcyclohex-1-en-1-yl]methyl}piperazin-1-yl)-N-{[6-({4-fluoro-1-[2-fluoro-1-(fluoromethyl)ethyl]piperidin-4-yl}methoxy)-5-(trifluoromethyl)pyridin-3-yl]sulfonyl}-2-(1H-indazol-4-yloxy)benzamide], for which the inhibition constant Ki was below 0.01 nM at GST-Bcl-2 and 5.42 nM at GST-Bcl-XL. Further, the “Binding selectivity ratio” value at GST-Bcl-2 is 541.6.

On to `CC1(C)CCC(CN2CCN(c3ccc(C(=O)NS(=O)(=O)c4ccc(NCC5CCOCC5)c([N+](=O)[O-])c4)c(Oc4ccccc4)c3)CC2)=C(c2ccc(Cl)cc2)C1` [Example 460, 4-(4-{[2-(4-chlorophenyl)-4,4-dimethylcyclohex-1-en-1-yl]methyl}piperazin-1-yl)-N-({3-nitro-4-[(tetrahydro-2H-pyran-4-ylmethyl)amino]phenyl}sulfonyl)-2-phenoxybenzamide], for which the Ki on GST-Bcl-2 worked out at 0.049 nM; on GST-Bcl-XL it was 29 nM.

In the case of `CC1(C)CCC(CN2CCN(c3ccc(C(=O)NS(=O)(=O)c4cnc(OCCC5CCCO5)c(Cl)c4)c(Oc4cccc5[nH]ncc45)c3)CC2)=C(c2ccc(Cl)cc2)C1` (stereo not shown) [Example 461, 4-(4-{[2-(4-chlorophenyl)-4,4-dimethylcyclohex-1-en-1-yl]methyl}piperazin-1-yl)-N-{[5-chloro-6-(2-tetrahydrofuran-2-ylethoxy)pyridin-3-yl]sulfonyl}-2-(1H-indazol-4-yloxy)benzamide], at GST-Bcl-2, affinity was put at a Ki of 0.093 nM and the “Binding selectivity ratio” value was 39.4. At GST-Bcl-XL, the affinity corresponds to a Ki of 3.65 nM.

In the case of `CC1(C)CCC(CN2CCN(c3ccc(C(=O)NS(=O)(=O)c4ccc(NC[C@H]5CC[C@H](C#N)CC5)c([N+](=O)[O-])c4)c(Oc4cccc5[nH]cnc45)c3)CC2)=C(c2ccc(Cl)cc2)C1` [Example 462, Trans-2-(1H-benzimidazol-4-yloxy)-4-(4-{[2-(4-chlorophenyl)-4,4-dimethylcyclohex-1-en-1-yl]methyl}piperazin-1-yl)-N-[(4-{[(4-cyanocyclohexyl)methyl]amino}-3-nitrophenyl)sulfonyl]benzamide], the inhibition constant Ki on GST-Bcl-2 was 0.026 nM; at GST-Bcl-XL, 18.4 nM.

`CC1(C)CCC(CN2CCN(c3ccc(C(=O)NS(=O)(=O)c4cnc(OCC5CCC(F)(F)CC5)c(Cl)c4)c(Oc4cccc5[nH]cnc45)c3)CC2)=C(c2ccc(Cl)cc2)C1` [Example 463, 2-(1H-benzimidazol-4-yloxy)-N-({5-chloro-6-[(4,4-difluorocyclohexyl)methoxy]pyridin-3-yl}sulfonyl)-4-(4-{[2-(4-chlorophenyl)-4,4-dimethylcyclohex-1-en-1-yl]methyl}piperazin-1-yl)benzamide]: at GST-Bcl-2, the affinity corresponds to a Ki of 0.007 nM and the “Binding selectivity ratio” value stood at 6042.9. Besides, the affinity on GST-Bcl-XL corresponds to a Ki of 43.9 nM.

As to `CC1(C)CCC(CN2CCN(c3ccc(C(=O)NS(=O)(=O)c4ccc(OCC5(F)CCOCC5)c(Cl)c4)c(Oc4cccc5[nH]ncc45)c3)CC2)=C(c2ccc(Cl)cc2)C1` [Example 464, N-({3-chloro-4-[(4-fluorotetrahydro-2H-pyran-4-yl)methoxy]phenyl}sulfonyl)-4-(4-{[2-(4-chlorophenyl)-4,4-dimethylcyclohex-1-en-1-yl]methyl}piperazin-1-yl)-2-(1H-indazol-4-yloxy)benzamide], at GST-Bcl-2, the affinity corresponds to a Ki of 0.081 nM and the “Binding selectivity ratio” value worked out at 6431.8. Also, affinity at GST-Bcl-XL was put at a Ki of 521 nM.

As for `CC1(C)CC(c2ccc(Cl)cc2)=C(CN2CCN(c3ccc(C(=O)NS(=O)(=O)c4cnc(OCC5(F)CCOCC5)c(Cl)c4)c(Oc4cccc5[nH]ncc45)c3)CC2)CO1` [Example 465, N-({5-chloro-6-[(4-fluorotetrahydro-2H-pyran-4-yl)methoxy]pyridin-3-yl}sulfonyl)-4-(4-{[4-(4-chlorophenyl)-6,6-dimethyl-5,6-dihydro-2H-pyran-3-yl]methyl}piperazin-1-yl)-2-(1H-indazol-4-yloxy)benzamide], on GST-Bcl-2, affinity was put at a Ki of 0.025 nM and the “Binding selectivity ratio” value was determined as 1472.4. The molecule also showed a Ki at GST-Bcl-XL of 37.2 nM.

Turning to `CC1(C)CCC(CN2CCN(c3ccc(C(=O)NS(=O)(=O)c4cnc(OCC5CCC(F)(F)CC5)c(Cl)c4)c(Oc4cccc5[nH]ncc45)c3)CC2)=C(c2ccc(Cl)cc2)C1` [Example 482, N-({5-chloro-6-[(4,4-difluorocyclohexyl)methoxy]pyridin-3-yl}sulfonyl)-4-(4-{[2-(4-chlorophenyl)-4,4-dimethylcyclohex-1-en-1-yl]methyl}piperazin-1-yl)-2-(1H-indazol-4-yloxy)benzamide], on GST-Bcl-2, the affinity, expressed as Ki, was 0.064 nM and the “Binding selectivity ratio” value came to 5442.9. On GST-Bcl-XL, the Ki stood at 350 nM.

With `CC1(C)CCC(CN2CCN(c3ccc(C(=O)NS(=O)(=O)c4cnc(OC[C@H]5CC[C@H](C(N)=O)CC5)c(Cl)c4)c(Oc4cccc5[nH]ncc45)c3)CC2)=C(c2ccc(Cl)cc2)C1` [Example 483, N-({6-[(trans-4-carbamoylcyclohexyl)methoxy]-5-chloropyridin-3-yl}sulfonyl)-4-(4-{[2-(4-chlorophenyl)-4,4-dimethylcyclohex-1-en-1-yl]methyl}piperazin-1-yl)-2-(1H-indazol-4-yloxy)benzamide], on GST-Bcl-2, the inhibition constant (Ki) is below 0.01 nM and the “Binding selectivity ratio” value is above 563.0. This molecule also came in with a Ki at GST-Bcl-XL of 5.63 nM.

As for `CC1(C)CCC(CN2CCN(c3ccc(C(=O)NS(=O)(=O)c4ccc(NC[C@H]5CC[C@H](C#N)CC5)c([N+](=O)[O-])c4)c(Oc4cccc5[nH]ncc45)c3)CC2)=C(c2ccc(Cl)cc2)C1` [Example 484, 4-(4-{[2-(4-chlorophenyl)-4,4-dimethylcyclohex-1-en-1-yl]methyl}piperazin-1-yl)-N-[(4-{[(trans-4-cyanocyclohexyl)methyl]amino}-3-nitrophenyl)sulfonyl]-2-(1H-indazol-4-yloxy)benzamide], the inhibitory constant (Ki) at GST-Bcl-2 was below 0.01 nM; at GST-Bcl-XL, 34.3 nM. Besides, at GST-Bcl-2, the “Binding selectivity ratio” value was above 3433.9.

For `CC1(C)CCC(CN2CCN(c3ccc(C(=O)NS(=O)(=O)c4cnc(OCCn5ccnc5)c(Cl)c4)c(Oc4cccc5[nH]ncc45)c3)CC2)=C(c2ccc(Cl)cc2)C1` [Example 485, N-({5-chloro-6-[2-(1H-imidazol-1-yl)ethoxy]pyridin-3-yl}sulfonyl)-4-(4-{[2-(4-chlorophenyl)-4,4-dimethylcyclohex-1-en-1-yl]methyl}piperazin-1-yl)-2-(1H-indazol-4-yloxy)benzamide], the inhibition constant Ki on GST-Bcl-2 turned out to be 0.167 nM; at GST-Bcl-XL it was 54.2 nM. Moreover, the “Binding selectivity ratio” value at GST-Bcl-2 came to 324.0.

For the molecule `Cn1cncc1COc1ncc(S(=O)(=O)NC(=O)c2ccc(N3CCN(CC4=C(c5ccc(Cl)cc5)CC(C)(C)CC4)CC3)cc2Oc2cccc3[nH]ncc23)cc1Cl` [Example 486, N-({5-chloro-6-[(1-methyl-1H-imidazol-5-yl)methoxy]pyridin-3-yl}sulfonyl)-4-(4-{[2-(4-chlorophenyl)-4,4-dimethylcyclohex-1-en-1-yl]methyl}piperazin-1-yl)-2-(1H-indazol-4-yloxy)benzamide], at GST-Bcl-2, the inhibitory constant (Ki) turned out to be 0.328 nM and the “Binding selectivity ratio” value was 77.6. Moreover, the affinity on GST-Bcl-XL, expressed as Ki, was 25.5 nM.

In the case of `CC1(C)CCC(CN2CCN(c3ccc(C(=O)NS(=O)(=O)c4cnc(OCC5CCOCC5)c(F)c4)c(Oc4cccc5[nH]ncc45)c3)CC2)=C(c2ccc(Cl)cc2)C1` [Example 487, 4-(4-{[2-(4-chlorophenyl)-4,4-dimethylcyclohex-1-en-1-yl]methyl}piperazin-1-yl)-N-{[5-fluoro-6-(tetrahydro-2H-pyran-4-ylmethoxy)pyridin-3-yl]sulfonyl}-2-(1H-indazol-4-yloxy)benzamide], the Ki at GST-Bcl-2 came out at 0.033 nM; on GST-Bcl-XL, 75.4 nM. At GST-Bcl-2, the “Binding selectivity ratio” value came to 2287.2.

`CC1(C)CCC(CN2CCN(c3ccc(C(=O)NS(=O)(=O)c4cnc(OCC5COCCO5)c(Cl)c4)c(Oc4cccc5[nH]ncc45)c3)CC2)=C(c2ccc(Cl)cc2)C1` (stereo not shown) [Example 488, N-{[5-chloro-6-(1,4-dioxan-2-ylmethoxy)pyridin-3-yl]sulfonyl}-4-(4-{[2-(4-chlorophenyl)-4,4-dimethylcyclohex-1-en-1-yl]methyl}piperazin-1-yl)-2-(1H-indazol-4-yloxy)benzamide]: on GST-Bcl-2, the inhibition constant (Ki) was below 0.01 nM and the “Binding selectivity ratio” value is above 2345.9. Besides, the Ki on GST-Bcl-XL came out at 23.5 nM.

For the molecule `CC1(C)CCC(CN2CCN(c3ccc(C(=O)NS(=O)(=O)c4cnc(OCC5(O)CCC(F)(F)CC5)c(Cl)c4)c(Oc4cccc5[nH]ncc45)c3)CC2)=C(c2ccc(Cl)cc2)C1` [Example 490, N-({5-chloro-6-[(4,4-difluoro-1-hydroxycyclohexyl)methoxy]pyridin-3-yl}sulfonyl)-4-(4-{[2-(4-chlorophenyl)-4,4-dimethylcyclohex-1-en-1-yl]methyl}piperazin-1-yl)-2-(1H-indazol-4-yloxy)benzamide], at GST-Bcl-2, the affinity, expressed as Ki, was 1.14 nM and the “Binding selectivity ratio” value came to 92.7. The inhibition constant Ki at GST-Bcl-XL worked out at 106 nM.
